According to patent US9255295B2, “Method for evaluating the sensitizing potential of a test compound” (IMMUNOSEARCH, priority 2010, dated 2016):
Like-named read-outs stand apart in the source and are kept apart here.

Assays:
[1] = test system: genes specific for sensitization (BRAK, CTSS, DAPK2, FABP4, HSP27, IL18, HSP90, IL1R2, TPSAB1, CXCR1, DEFB1, DHFR, EHF, IVL, KRT4, MELANA, NGAL, PDZK1IP1, PI3 …); assay: Expression of the other (non-ARE) sensitization-specific genes in EPISKIN reconstructed skin (quantitative RT-PCR); assay type: cell-based, human; conditions: for BRAK expression / CTSS expression / CXCR1 expression / DAPK2 expression / DEFB1 expression / DHFR expression / EHF expression / FABP4 expression / HSP27 expression / HSP90 expression / IL18 expression / IVL expression / KRT4 expression / MELANA expression / NGAL expression / P13 expression / PDZK1iP1 expression / SERPINB3 expression: compared to the control;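 as to CTSS NUMBER OF GENES grade: grade scored against expression in the control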;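 as to CXCR1 NUMBER OF GENES grade: grade scored against expression in the control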;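 as to DAPK2 NUMBER OF GENES grade: grade scored against expression in the control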
[2] = test system: EPISKIN model
Source text: “Sensitizing power” means the ability of a given compound to induce a sensitization reaction according to the concentration of said compound. Sensitizing power is dependent on the quantity of substance necessary to induce sensitization. Thus, the lower the sensitizing quantity necessary to induce a sensitizing response, the stronger the sensitizer is, and vice versa, the higher the sensitizing quantity necessary to induce a sensitizing response, the weaker the sensitizer is.
Thus, steps 1) and 2) will be done for each of the dilutions.

[3] = test system: ARE gene family (AKR1B10, AKR1C1, AKR1C2, CYP1B1, FTH1P, FTL, G6PD, GCLM, NQO2, SLC7A11, TXNRD1, UGT1A1, UGT1A9, YWHAZ, CD36, CYP1A1, GCLC, HMOX1, NQO1, PSME2 …)

C=CCc1ccc(O)c(OC)c1 [Eugenol]
BRAK NUMBER OF GENES grade ([1]; 10%): 0 (if this expression is lower, the grade is 0) | CTSS NUMBER OF GENES grade ([1]; 10%): 0 (if this expression is lower, the grade is 0) | CXCR1 NUMBER OF GENES grade ([1]; 10%): 0 (if this expression is lower, the grade is 0) | DAPK2 NUMBER OF GENES grade ([1]; 10%): 1 (If the expression is greater than 1.3 compared to the control, a grade of 11s given) | DEFB1 NUMBER OF GENES grade ([1]; 10%): 0 (if this expression is lower, the grade is 0) | DHFR NUMBER OF GENES grade ([1]; 10%): 0 (if this expression is lower, the grade is 0) | EHF NUMBER OF GENES grade ([1]; 10%): 1 (If the expression is greater than 1.3 compared to the control, a grade of 11s given) | FABP4 NUMBER OF GENES grade ([1]; 10%): 0 (if this expression is lower, the grade is 0) | HSP27 NUMBER OF GENES grade ([1]; 10%): 0 (if this expression is lower, the grade is 0) | HSP90 NUMBER OF GENES grade ([1]; 10%): 0 (if this expression is lower, the grade is 0) | IL18 NUMBER OF GENES grade ([1]; 10%): 0 (if this expression is lower, the grade is 0) | IVL NUMBER OF GENES grade ([1]; 10%): 0 (if this expression is lower, the grade is 0) | KRT4 NUMBER OF GENES grade ([1]; 10%): 0 (if this expression is lower, the grade is 0) | MELANA NUMBER OF GENES grade ([1]; 10%): 1 (If the expression is greater than 1.3 compared to the control, a grade of 11s given) | NGAL NUMBER OF GENES grade ([1]; 10%): 0 (if this expression is lower, the grade is 0) | P13 NUMBER OF GENES grade ([1]; 10%): 0 (if this expression is lower, the grade is 0) | PDZK1iP1 NUMBER OF GENES grade ([1]; 10%): 0 (if this expression is lower, the grade is 0) | SENS >1.3 (number of genes) ([1]; 10%): 4 | SERPINB3 NUMBER OF GENES grade ([1]; 10%): 0 (if this expression is lower, the grade is 0) | TOTAL SENS (number of genes) ([1]; 10%): 4 | BRAK expression ([1]; 10%): 0.7 | CTSS expression ([1]; 10%): 1.0 | CXCR1 expression ([1]; 10%): 0.8 | DAPK2 expression ([1]; 10%): 1.3 | DEFB1 expression ([1]; 10%): 1.1 | DHFR expression ([1]; 10%): 0.8 | EHF expression ([1]; 10%): 1.3 | FABP4 expression ([1]; 10%): 0.6 | HSP27 expression ([1]; 10%): 1.1 | HSP90 expression ([1]; 10%): 1.1 | IL18 expression ([1]; 10%): 1.1 | IVL expression ([1]; 10%): 0.9 | KRT4 expression ([1]; 10%): 0.8 | MELANA expression ([1]; 10%): 1.9 | NGAL expression ([1]; 10%): 0.7 | P13 expression ([1]; 10%): 0.9 | PDZK1iP1 expression ([1]; 10%): 0.9 | SERPINB3 expression ([1]; 10%): 1.2 | BRAK NUMBER OF GENES grade ([1]; 50%): 0 (if this expression is lower, the grade is 0) | CTSS NUMBER OF GENES grade ([1]; 50%): 0 (if this expression is lower, the grade is 0) | CXCR1 NUMBER OF GENES grade ([1]; 50%): 1 (If the expression is greater than 1.3 compared to the control, a grade of 11s given) | DAPK2 NUMBER OF GENES grade ([1]; 50%): 1 (If the expression is greater than 1.3 compared to the control, a grade of 11s given) | DEFB1 NUMBER OF GENES grade ([1]; 50%): 1 (If the expression is greater than 1.3 compared to the control, a grade of 11s given) | DHFR NUMBER OF GENES grade ([1]; 50%): 0 (if this expression is lower, the grade is 0) | EHF NUMBER OF GENES grade ([1]; 50%): 0 (if this expression is lower, the grade is 0) | FABP4 NUMBER OF GENES grade ([1]; 50%): 1 (If the expression is greater than 1.3 compared to the control, a grade of 11s given) | HSP27 NUMBER OF GENES grade ([1]; 50%): 1 (If the expression is greater than 1.3 compared to the control, a grade of 11s given) | HSP90 NUMBER OF GENES grade ([1]; 50%): 1 (If the expression is greater than 1.3 compared to the control, a grade of 11s given) | IL18 NUMBER OF GENES grade ([1]; 50%): 0 (if this expression is lower, the grade is 0) | IVL NUMBER OF GENES grade ([1]; 50%): 1 (If the expression is greater than 1.3 compared to the control, a grade of 11s given) | KRT4 NUMBER OF GENES grade ([1]; 50%): 1 (If the expression is greater than 1.3 compared to the control, a grade of 11s given) | MELANA NUMBER OF GENES grade ([1]; 50%): 0 (if this expression is lower, the grade is 0) | NGAL NUMBER OF GENES grade ([1]; 50%): 1 (If the expression is greater than 1.3 compared to the control, a grade of 11s given) | P13 NUMBER OF GENES grade ([1]; 50%): 1 (If the expression is greater than 1.3 compared to the control, a grade of 11s given) | PDZK1iP1 NUMBER OF GENES grade ([1]; 50%): 1 (If the expression is greater than 1.3 compared to the control, a grade of 11s given) | SENS >1.3 (number of genes) ([1]; 50%): 15 | SERPINB3 NUMBER OF GENES grade ([1]; 50%): 1 (If the expression is greater than 1.3 compared to the control, a grade of 11s given) | TOTAL SENS (number of genes) ([1]; 50%): 15 | BRAK expression ([1]; 50%): 0.4 | CTSS expression ([1]; 50%): 0.1 | CXCR1 expression ([1]; 50%): 2.2 | DAPK2 expression ([1]; 50%): 1.5 | DEFB1 expression ([1]; 50%): 3.0 | DHFR expression ([1]; 50%): 0.6 | EHF expression ([1]; 50%): 1.2 | FABP4 expression ([1]; 50%): 1.4 | HSP27 expression ([1]; 50%): 5.4 | HSP90 expression ([1]; 50%): 9.1 | IL18 expression ([1]; 50%): 0.7 | IVL expression ([1]; 50%): 2.6 | KRT4 expression ([1]; 50%): 4.6 | MELANA expression ([1]; 50%): 1.0 | NGAL expression ([1]; 50%): 1.3 | P13 expression ([1]; 50%): 1.4 | PDZK1iP1 expression ([1]; 50%): 1.7 | SERPINB3 expression ([1]; 50%): 1.4 | sensitizing power (class) [2]: WEAK | ARE >1.3 (number of genes) [3]: 10 | TOTAL ARE (number of genes) [3]: 10 | AHR expression ([3]; human, 6 h, 10 %): 0.8 | AKR1B10 expression ([3]; human, 6 h, 10 %): 0.9 | AKR1C1 expression ([3]; human, 6 h, 10 %): 1.3 | AKR1C2 expression ([3]; human, 6 h, 10 %): 1.1 | ARE >1.3 (number of genes) ([3]; human, 6 h, 10 %): 3 | CD36 expression ([3]; human, 6 h, 10 %): 1.7 | CYP1A1 expression ([3]; human, 6 h, 10 %): 0.5 | CYP1B1 expression ([3]; human, 6 h, 10 %): 0.6 | FTH1P expression ([3]; human, 6 h, 10 %): 1.1 | FTL expression ([3]; human, 6 h, 10 %): 1.1 | GCLC expression ([3]; human, 6 h, 10 %): 1.3 | GCLM expression ([3]; human, 6 h, 10 %): 1.1 | HMOX1 expression ([3]; human, 6 h, 10 %): 1.3 | NQO1 expression ([3]; human, 6 h, 10 %): 1.1 | NQO2 expression ([3]; human, 6 h, 10 %): 1.0 | S100A8 expression ([3]; human, 6 h, 10 %): 1.0 | SLC7A11 expression ([3]; human, 6 h, 10 %): 1.2 | TOTAL ARE (number of genes) ([3]; human, 6 h, 10 %): 3 | TXNRD1 expression ([3]; human, 6 h, 10 %): 1.1 | UGT1A1 expression ([3]; human, 6 h, 10 %): 1.0 | UGT1A9 expression ([3]; human, 6 h, 10 %): 0.7 | AHR expression ([3]; human, 6 h, 50 %): 1.3 | AKR1B10 expression ([3]; human, 6 h, 50 %): 1.0 | AKR1C1 expression ([3]; human, 6 h, 50 %): 0.7 | AKR1C2 expression ([3]; human, 6 h, 50 %): 0.7 | CD36 expression ([3]; human, 6 h, 50 %): 2.3 | CYP1A1 expression ([3]; human, 6 h, 50 %): 2.3 | CYP1B1 expression ([3]; human, 6 h, 50 %): 0.9 | FTH1P expression ([3]; human, 6 h, 50 %): 2.3 | FTL expression ([3]; human, 6 h, 50 %): 4.2 | GCLC expression ([3]; human, 6 h, 50 %): 3.2 | GCLM expression ([3]; human, 6 h, 50 %): 1.1 | HMOX1 expression ([3]; human, 6 h, 50 %): 2.4 | NQO1 expression ([3]; human, 6 h, 50 %): 0.7 | NQO2 expression ([3]; human, 6 h, 50 %): 1.3 | S100A8 expression ([3]; human, 6 h, 50 %): 1.9 | SLC7A11 expression ([3]; human, 6 h, 50 %): 2.6 | TXNRD1 expression ([3]; human, 6 h, 50 %): 3.0 | UGT1A1 expression ([3]; human, 6 h, 50 %): 0.5 | UGT1A9 expression ([3]; human, 6 h, 50 %): 25.0
